Source: patent US7972800B2, “Screening method for binding property or signal transduction alterations” (Takeda Pharmaceutical Company Limited, priority 2003, dated 2011)

Legend:
[1] = system: GPR39-expressed UM-UC-3 cells; assay: IL-8 secretion from GPR39-expressed UM-UC-3 cells, quantified by EIA; assay type: cell-based, human; conditions: 1 mM copper chloride, 12 hours incubation, culture supernatant
Experimental: Using GPR39-expressed UM-UC-3 cells, the effects of adding metal ions as the agonist for GPR39 were examined.
After washing with PBS, the cells were scraped off using trypsin and centrifuged for recovery. […] Next, the suspension was dispensed in a 6-well plate (Falcon) at 5 ml each per well, followed by incubation overnight in a CO2 incubator.
Then, 5 ml each was added to each well, followed by incubation at 37° C. in a CO2 incubator for […]. […] After the culture supernatant was recovered, IL-8 contained in the samples was quantified by EIA (Amersham).

[2] = system: bladder (micturition) of conscious rats; assay: Cystometry in conscious rats with intravesical infusion; assay type: in vivo, rat; conditions: female SD rats, 1 mM CuCl2 in saline infused into the bladder
Experimental: Female SD rats of 9-10 weeks old were anaesthetized by intramuscular injection with 0.1 ml/100 g of a solution obtained by mixing ketamine (50 mg/mL) and xylazine (20 mg/mL) in 5:1. The bladder was then exposed via a midline incision and a hole was made with a 20-G needle to insert a polyethylene tube (PE-50), which tube was sutured to the bladder with cotton thread. The polyethylene tube cannulated into the bladder was cut at a length of about 1 cm, which was connected to a silicon tube (No. 00) and exposed to the dorsum through the skin. The animals were housed in individual cages until they were used for the experiments.
One day after the surgery, the animal was anesthetized with halothane and placed in Ballman cages under restricted conditions. After a three-way cock was connected to the tube cannulated into the bladder, a saline infusion tube was connected to a cystometry tube (resistance to infusion). An electronic scale was placed under the Ballman cages and the micturition volume was measured at the same time. When the anesthetic completely worn off, the infusion of saline into the bladder commenced and the bladder pressure and micturition volume were recorded on a personal computer via an A-D converter (MP-100, BIOPAC Systems) and analyzed using a dedicated software (AcqKnowledge, BIOPAC Systems).
Saline was infused into the bladder at the rate of 6 ml/hr and the infusion was continued for 1 or 2 hours until stable micturition was recorded. In order to enhance the permeability of a drug into the bladder, protamine sulfate (10 mg/mL in PBS) was infused into the bladder for an hour (Chuang Y, et. al., 2003, Urology, 63, 664-670). […] Then, saline was reinfused into the bladder and micturition was recorded at least 2 hours until protamine was completely washed off. […] Mean micturition intervals during from about 30 minutes to about 60 minutes after starting the infusion of CuCl2 were calculated to find a ratio to mean micturition intervals for about 30 minutes before the infusion of CuCl2 (% of the pre-value).

[Cl][Cu][Cl] [copper chloride]
amount of IL-8 accumulated relative to absence of copper chloride [1]: approximately twice
basal pressure (bladder) [2]: not affected
ratio of mean micturition intervals (% of the pre-value) ([2]; about 30-60 min after start vs about 30 min before, pre-value made 100%, n=4): 42.2±6.1%
